Experimental data published in ChEMBL document CHEMBL4041528, “Natural NO inhibitors from the leaves of Callicarpa kwangtungensis: Structures, activities, and interactions with iNOS” (Bioorg Med Chem Lett, 2017).

Key:
BV-2 [1] = test: Inhibition of LPS-induced NO production in mouse BV2 cells after 20 hrs by Griess assay; assay type: functional, cell-based; conditions: BV-2, 20 h
BV-2 [2] = test: Cytotoxicity against mouse BV2 cells NO inhibitory IC50 by MTT assay; assay type: cell-based

IC50 (BV-2 [1]) [µM]	Compound	Activity (BV-2 [2])
42.6	C=C1CC[C@H](O)[C@@]2(C)O[C@H]2C[C@@H]2[C@@H]1CC2(C)C	Non-Toxic
15.3	C=C(C)c1ccc2c(c1)CC[C@H]1[C@](C)(CO)CCC[C@]21C	Non-Toxic
> 81	CC(C)[C@]12CC[C@@]34O[C@@]3(CC[C@H]3[C@](C)(C(=O)O)CCC[C@@]34C)[C@H]1O2	Non-Toxic
62.2	CC1(C)C[C@H](O)[C@]23CC[C@@H](O)[C@](C)(CC[C@@H]12)C3	Non-Toxic
> 81	CC1(C)C[C@@H]2C(=O)CC[C@H]3O[C@]3(C)CC[C@H]21 [KOBUSONE]	Non-Toxic
25.5	C=C(C)c1ccc2c(c1)CC[C@H]1[C@](C)(C(=O)O)CCC[C@]1(C)O2	Non-Toxic
17.9	CC(C)c1ccc2c(c1)[C@@H](O)C[C@H]1[C@](C)(C(=O)O)CCC[C@]21C	Non-Toxic
13.6	C=C1CC[C@H](O)/C(C)=C\C[C@@H]2[C@@H]1CC2(C)C	Non-Toxic

Compound	IC50 (BV-2 [1]) [µM]	Activity (BV-2 [2])
CO[C@@H]1C[C@H]2[C@](C)(C(=O)O)CCC[C@]2(C)[C@]23CC[C@](C(C)C)(C=C12)OO3	23.7	Non-Toxic
CC(C)[C@]12CC[C@]3(OO1)C(=CC[C@H]1[C@](C)(C(=O)O)CCC[C@@]13C)[C@@H]2O	26.7	Non-Toxic
CC(C)[C@]12C=C3CC[C@H]4[C@](C)(C(=O)O)CCC[C@]4(C)[C@@]3(CC1)OO2	34.7	Non-Toxic
CC(C)[C@@]12C=C3CC[C@H]4[C@](C)(C(=O)O)CCC[C@]4(C)[C@]3(CC1)OO2	52.4	Non-Toxic
CC(C)[C@@]12C=C3[C@H](O)C[C@H]4[C@](C)(C(=O)O)CCC[C@]4(C)[C@]3(CC1)OO2	> 81	Non-Toxic
